Source: patent publication US8404664B2, “Phosphonated Rifamycins and uses thereof for the prevention and treatment of bone and joint infections” (Targanta Therapeutics, Inc., priority 2005, dated 2013)

Experiments:
[1] = tested on: S. aureus ATCC 13709 Novobiocin resistant mutant (bone infection); assay: Prophylactic efficacy in rat model of S. aureus bone infection; format: in vivo; details: for Prophylactic effect (in words): rat bone infection, doses and times of Table 3, t-test p<0.05; for Measured bacterial titer: rat tibia 24 h postinfection
[2] = Levels of compound 9 in rat tibiae (microbiological assay); format: in vivo; details: for Amount of compound 9 in the uninfected tibiae: dose equivalent to 10 mg/kg of 9 (11: 15.5 mg/kg), three days prior to infection
Experimental: The experimentally obtained intact uninfected (contra lateral) tibia of the treated and infected rats described above was ground to a powder which was suspended in PBS+2% DMSO. The mixture was centrifuged for 2 min at 13,000 rpm. The amount of compound 9 released in the supernatant was determined by microbiological assay as described previously (Example 3).

[3] = single dose 11 mg/kg parent drug equivalent, 3 days prior to infection

| Compound | Prophylactic effect (in words) [1] | Measured bacterial titer [1, 3] | Amount of compound 9 in the uninfected tibiae [2] | also measured |
| --- | --- | --- | --- | --- |
| CO[C@H]1/C=C/O[C@@]2(C)Oc3c(C)c(O)c4c(=O)c(c5oc6cc(N7CCN(CCC(=O)c8ccc(OCCCC(P(=O)(O)O)P(=O)(O)O)cc8)CC7)cc(O)c6nc-5c4c3C2=O)NC(=O)/C(C)=C\C=C\[C@H](C)[C@H](O)[C@@H](C)[C@@H](O)[C@@H](C)[C@H](OC(C)=O)[C@@H]1C [Compound 71] | statistically significant |  |  | Measured bacterial titer ([1]; single dose 20 mg/kg parent drug equivalent, 3 days prior to infection): 2.77 ± 1.00 Log CFU/g of bone |
| CO[C@H]1/C=C/O[C@@]2(C)Oc3c(C)c(O)c4c(=O)c(c5oc6cc(N7CCN(CC(C)C)CC7)cc(O)c6nc-5c4c3C2=O)NC(=O)/C(C)=C\C=C\[C@H](C)[C@H](OC(=O)CCCOC(=O)CCC(=O)NC(P(=O)(O)O)P(=O)(O)O)[C@@H](C)[C@@H](O)[C@@H](C)[C@H](OC(C)=O)[C@@H]1C [Compound 81, 21-O-(4-((3-(bisphosphonomethyl)carbamoyl)propanoyloxy)butanoyl)-1′,4-Didehydro-1-deoxy-1,4-dihydro-3′-hydroxy-5′-[4-(2-methylpropyl)-1-piperazinyl]-1-oxorifamycin VIII] | statistically significant |  |  | Measured bacterial titer ([1]; single dose 10 mg/kg parent drug equivalent, 3 days prior to infection): 2.05 ± 0.06 Log CFU/g of bone |
| 3-(((4-(2-(3-((bisphosphonomethyl)carbamoyl)propanoyloxy)ethyl)-1-piperazinyl)imino)methyl)rifamycin [Compound 11] | statistically significant | 3.01 ± 0.47 Log CFU/g of bone | 0.88 ± 0.11 µg/g | Level of compound 9 in uninfected tibia ([2]; 11 at 32 mg/kg once weekly for 4 weeks after the infection): 1.28±0.18 μg/g of bone |
| CO[C@H]1/C=C/O[C@@]2(C)Oc3c(C)c(O)c4c(=O)c(c5oc6cc(N7CCN(CCOC(=O)CCC(=O)NC(P(=O)(O)O)P(=O)(O)O)CC7)cc(O)c6nc-5c4c3C2=O)NC(=O)/C(C)=C\C=C\[C@H](C)[C@H](O)[C@@H](C)[C@@H](O)[C@@H](C)[C@H](OC(C)=O)[C@@H]1C.N.N [Compound 62] | statistically significant |  |  | Measured bacterial titer ([1]; single dose 20 mg/kg parent drug equivalent, 2 days prior to infection): 1.98 ± 0.06 Log CFU/g of bone |
| CO[C@H]1/C=C/O[C@@]2(C)Oc3c(C)c(O)c4c(O)c(c(/C=N/N5CCN(CCO)CC5)c(O)c4c3C2=O)NC(=O)/C(C)=C\C=C\[C@H](C)[C@H](O)[C@@H](C)[C@@H](O)[C@@H](C)[C@H](OC(C)=O)[C@@H]1C [Compound 9, 3-(((4-(2-hydroxyethyl)-1-piperazinyl)imino)methyl)rifamycin] |  | 6.38 ± 0.90 Log CFU/g of bone | < 0.17 µg/g |  |
